Experimental data published in ChEMBL document CHEMBL5518215, “Unlocking Antibacterial Potential: Key-Site-Based Regulation of Antibacterial Spectrum of Peptides” (J Med Chem, 2024).

Key:
[1] = Antimicrobial activity against Salmonella pullorum C7913 assessed as bacterial killing measured after 16 hrs incubation; type: functional, Salmonella enterica subsp. enterica serovar Pullorum; settings: Salmonella enterica
[2] = tested on: Escherichia coli; assay: Antimicrobial activity against Escherichia coli 25922 assessed as absence bacterial growth measured after 18 to 24 hrs incubation by NCCLS method; type: functional; settings: time 18-24 hrs
[3] = tested on: Escherichia coli; assay: Antimicrobial activity against Escherichia coli 25922 assessed as absence bacterial growth measured after 18 to 24 hrs incubation in presence of NaCl by NCCLS method; type: functional; settings: time 18-24 hrs
[4] = tested on: Enterococcus faecalis; assay: Antimicrobial activity against Enterococcus faecalis 29212 assessed as absence bacterial growth measured after 18 to 24 hrs incubation by NCCLS method; type: functional; settings: time 18-24 hrs
[5] = tested on: Escherichia coli; assay: Antimicrobial activity against Escherichia coli 25922 assessed as absence bacterial growth measured after 18 to 24 hrs incubation in presence of MgCl2 by NCCLS method; type: functional; settings: time 18-24 hrs
[6] = tested on: Staphylococcus aureus; assay: Antimicrobial activity against Staphylococcus aureus 29213 assessed as absence bacterial growth measured after 18 to 24 hrs incubation by NCCLS m; type: functional; settings: time 18-24 hrs
[7] = tested on: Salmonella typhimurium; assay: Antimicrobial activity against Salmonella typhimurium C7731 assessed as bacterial killing measured after 16 hrs incubation; type: functional, Salmonella enterica subsp. enterica serovar Typhimurium; settings: Salmonella enterica
[8] = tested on: Acinetobacter baumannii; assay: Antimicrobial activity against Acinetobacter baumannii 1.6769 assessed as bacterial killing measured after 16 hrs incubation; type: functional
[9] = tested on: Staphylococcus aureus; assay: Antimicrobial activity against Staphylococcus aureus 29213 assessed as absence bacterial growth measured after 18 to 24 hrs incubation by NCCLS method; type: functional; settings: time 18-24 hrs
[10] = tested on: Staphylococcus aureus; assay: Antimicrobial activity against Methicillin-resistant Staphylococcus aureus 43300 assessed as absence bacterial growth measured after 18 to 24 hrs incubation by NCCLS method; type: functional; settings: time 18-24 hrs
[11] = tested on: Listeria monocytogenes; assay: Antimicrobial activity against Listeria monocytogenes 1.10753 assessed as bacterial killing measured after 16 hrs incubation; type: functional
[12] = tested on: Escherichia coli; assay: Antimicrobial activity against Escherichia coli 25922 assessed as absence bacterial growth measured after 18 to 24 hrs incubation in presence of 50% serum by NCCLS method; type: functional; settings: time 18-24 hrs
[13] = tested on: Escherichia coli; assay: Antimicrobial activity against Escherichia coli 25922 assessed as absence bacterial growth measured after 18 to 24 hrs incubation in presence of FeCl3 by NCCLS method; type: functional; settings: time 18-24 hrs
[14] = tested on: Salmonella typhimurium; assay: Antimicrobial activity against Salmonella typhimurium 14028 assessed as bacterial killing measured after 16 hrs incubation; type: functional, Salmonella enterica subsp. enterica serovar Typhimurium; settings: Salmonella enterica
[15] = tested on: Bacillus cereus; assay: Antimicrobial activity against Bacillus cereus 1.932 assessed as bacterial killing measured after 16 hrs incubation; type: functional
[16] = tested on: Pseudomonas aeruginosa; assay: Antimicrobial activity against Pseudomonas aeruginosa 27853 assessed as absence bacterial growth measured after 18 to 24 hrs incubation by NCCLS method; type: functional; settings: time 18-24 hrs
[17] = tested on: Escherichia coli; assay: Antimicrobial activity against Escherichia coli K88 assessed as bacterial killing measured after 16 hrs incubation; type: functional
[18] = tested on: Staphylococcus epidermidis; assay: Antimicrobial activity against Staphylococcus epidermidis 12228 assessed as bacterial killing measured after 16 hrs incubation; type: functional
[19] = tested on: Escherichia coli; assay: Antimicrobial activity against Escherichia coli K88 assessed as absence bacterial growth measured after 18 to 24 hrs incubation by NCCLS method; type: functional; settings: time 18-24 hrs
[20] = Cytotoxicity against mouse RAW264.7 cells assessed as cell survival rate measured after 8 hrs by MTT assay; type: toxicity, cell-based
[21] = tested on: Bacillus cereus; assay: Antimicrobial activity against Bacillus cereus 1.932 assessed as absence bacterial growth measured after 18 to 24 hrs incubation by NCCLS method; type: functional; settings: time 18-24 hrs
[22] = tested on: Enterococcus faecalis; assay: Antimicrobial activity against Enterococcus faecalis 29212 assessed as bacterial killing measured after 16 hrs incubation; type: functional
[23] = tested on: Staphylococcus aureus; assay: Antimicrobial activity against Staphylococcus aureus 25923 assessed as bacterial killing measured after 16 hrs incubation; type: functional
[24] = tested on: Listeria monocytogenes; assay: Antimicrobial activity against Listeria monocytogenes 1.10753 assessed as absence bacterial growth measured after 18 to 24 hrs incubation by NCCLS method; type: functional; settings: time 18-24 hrs
[25] = tested on: Escherichia coli; assay: Antimicrobial activity against Escherichia coli 25922 assessed as absence bacterial growth measured after 18 to 24 hrs incubation in presence of ZnCl2 by NCCLS method; type: functional; settings: time 18-24 hrs
[26] = tested on: Staphylococcus aureus; assay: Antimicrobial activity against Methicillin-resistant Staphylococcus aureus 43300 assessed as bacterial killing measured after 16 hrs incubation; type: functional
[27] = tested on: Escherichia coli; assay: Antimicrobial activity against Escherichia coli 25922 assessed as absence bacterial growth measured after 18 to 24 hrs incubation in presence of NH4Cl by NCCLS method; type: functional; settings: time 18-24 hrs
[28] = tested on: Staphylococcus aureus; assay: Antimicrobial activity against Staphylococcus aureus 29213 assessed as bacterial killing measured after 16 hrs incubation; type: functional
[29] = tested on: Pseudomonas aeruginosa; assay: Antimicrobial activity against Pseudomonas aeruginosa 27853 assessed as bacterial killing measured after 16 hrs incubation; type: functional
[30] = tested on: Escherichia coli; assay: Antimicrobial activity against Escherichia coli 25922 assessed as absence bacterial growth measured after 18 to 24 hrs incubation in presence of 25% serum by NCCLS method; type: functional; settings: time 18-24 hrs
[31] = tested on: Escherichia coli; assay: Antimicrobial activity against Escherichia coli 25922 assessed as absence bacterial growth measured after 18 to 24 hrs incubation in presence of 12.5% serum by NCCLS method; type: functional; settings: time 18-24 hrs
[32] = tested on: Acinetobacter baumannii; assay: Antimicrobial activity against Acinetobacter baumannii 1.6769 assessed as absence bacterial growth measured after 18 to 24 hrs incubation by NCCLS method; type: functional; settings: time 18-24 hrs
[33] = tested on: Escherichia coli; assay: Antimicrobial activity against Escherichia coli 25922 assessed as bacterial killing measured after 16 hrs incubation; type: functional
[34] = tested on: Salmonella typhimurium; assay: Antimicrobial activity against Salmonella typhimurium 14028 assessed as absence bacterial growth measured after 18 to 24 hrs incubation by NCCLS method; type: functional, Salmonella enterica subsp. enterica serovar Typhimurium; settings: Salmonella enterica, time 18-24 hrs
[35] = Cytotoxicity against porcine IPEC-J2 cells assessed as cell survival rate measured after 8 hrs by MTT assay; type: toxicity, cell-based, Sus scrofa; settings: pig
[36] = tested on: Staphylococcus epidermidis; assay: Antimicrobial activity against Staphylococcus epidermidis 12228 assessed as absence bacterial growth measured after 18 to 24 hrs incubation by NCCLS method; type: functional; settings: time 18-24 hrs
[37] = Antimicrobial activity against Salmonella pullorum C7913 assessed as absence bacterial growth measured after 18 to 24 hrs incubation by NCCLS method; type: functional, Salmonella enterica subsp. enterica serovar Pullorum; settings: Salmonella enterica, time 18-24 hrs
[38] = Cytotoxicity against human HEK-293T cells assessed as cell survival rate measured after 8 hrs by MTT assay; type: toxicity, cell-based
[39] = tested on: Erythrocyte; assay: Hemolytic activity in human RBC at effective concentration measured after 1 hr by microplate reader analysis; type: toxicity, cell-based
[40] = tested on: Escherichia coli; assay: Antimicrobial activity against Escherichia coli 25922 assessed as absence bacterial growth measured after 18 to 24 hrs incubation in presence of KCl by NCCLS method; type: functional; settings: time 18-24 hrs
[41] = tested on: Salmonella typhimurium; assay: Antimicrobial activity against Salmonella typhimurium C7731 assessed as absence bacterial growth measured after 18 to 24 hrs incubation by NCCLS method; type: functional, Salmonella enterica subsp. enterica serovar Typhimurium; settings: Salmonella enterica, time 18-24 hrs

Substance: H-GKLWLKGVKLWLKGGKLWLKG-NH2
- MBC [1]: 0.5 µM
- MIC [2]: 1 µM
- MIC [3]: 4 µM
- MIC [4]: 4 µM
- MIC [5]: 4 µM
- MIC [6]: 2 µM
- MBC [7]: 8 µM
- MBC [8]: 4 µM
- MIC [9]: 4 µM
- MIC [10]: 2 µM
- MBC [11]: > 32 µM
- MIC [12]: > 32 µM
- MIC [13]: 1 µM
- MBC [14]: 2 µM
- MBC [15]: 4 µM
- MIC [16]: 4 µM
- MBC [17]: 0.5 µM
- MBC [18]: 4 µM
- MIC [19]: 0.5 µM
- IC50 at 8 h [20]: 61.3 µM
- MIC [21]: 4 µM
- MBC [22]: 4 µM
- MBC [23]: 4 µM
- MIC [24]: > 32 µM
- MIC [25]: 1 µM
- MBC [26]: 2 µM
- MIC [27]: 1 µM
- MBC [28]: 4 µM
- MBC [29]: 4 µM
- MIC [30]: > 32 µM
- MIC [31]: 16 µM
- MIC [32]: 1 µM
- MBC [33]: 1 µM
- MIC [34]: 2 µM
- IC50 at 8 h [35]: 8.73 µM
- MIC [36]: 2 µM
- MIC [37]: 0.5 µM
- IC50 at 8 h [38]: > 64 µM
- HC10 [39]: 128 µM
- MIC [40]: 1 µM
- MIC [41]: 4 µM
